Source: patent US7579371B2, “Methods of using [3.2.0] heterocyclic compounds and analogs thereof” (Nereus Pharmaceuticals, Inc., priority 2004, dated 2009)
Read-outs that look alike come from different tables or passages of the source.

Tests used:
multiple myeloma cells = assay: Transwell migration assay, VEGF-induced migration; assay type: cell-based
Description: The compounds disclosed herein inhibit angiogenesis. […] The other compounds disclosed herein are tested in a transwell mighration assay and inhibit migration.

DU 145 = assay: Cell growth inhibition assay (resazurin, 48 h); assay type: cell-based, human
PARP = PARP cleavage in Jurkat cells (western blot); assay type: cell-based, human; conditions: 100 nM Salinosporamide A or 350 nM Staurosporine
PANC-1 = assay: Cell growth inhibition assay (resazurin, 48 h); assay type: cell-based; conditions: Homo sapiens, PANC-1, 48 h
HL-60 = assay: cells; conditions: Homo sapiens, HL-60, 48 h
RPMI 8226 = assay: Cell growth inhibition assay (resazurin, 48 h); conditions: for % cytotoxicity: RPMI 8226
Description: (§1) RPMI 8226 (CCL-155), HT-29 (HTB-38), and B16-F10 (CRL-6475) cells were purchased from ATCC. RPMI 8226 cells were maintained in RPMI 1640 media supplemented with 10% (v/v) FBS, 2 mM L-glutamine, 1 mM sodium pyruvate and Penicillin/Streptomycin at 100 IU/ml and 100 μg/ml, respectively. HT-29 cells were maintained in McCoys 5A supplemented with 10% (v/v) FBS, 2 mM L-glutamine, 1 mM sodium pyruvate, 1% (v/v) non-essential amino acids, 10 mM HEPES and Penicillin/Streptomycin at 100 IU/ml and 100 μg/ml, respectively. B16-F10 cells were maintained in DMEM supplemented with 10% (v/v) FBS, 2 mM L-glutamine, 10 mM HEPES and Penicillin/Streptomycin at 100 IU/ml and 100 μg/ml, respectively.
(§2) RPMI 8226 cells were seeded at 2×10^4 cells/well in 90 μl RPMI media containing 10% (v/v) FBS or 1% (v/v) FBS into 96 well black-walled, clear-bottom tissue culture plates. […] Formulae II-16, II-17 and Formula II-18 were serially diluted in media containing 1% or 10% FBS and added in triplicate to the test wells. […] The final concentration of Formula II-18 ranged from 2 μM to 630 pM.

MES-SA = assay: Cell growth inhibition assay (resazurin, 48 h); assay type: cell-based, human
CCD-27sk = assay: Cytotoxic activity, 48 h, normal human fibroblasts; assay type: cell-based
IκBα = assay: Western blot of total and phosphorylated IκBα, HEK293 and NF-κB/Luc 293 cells; assay type: cell-based, human; conditions: 50 and 500 nM, 1 hour pre-treatment
Description: Endogenous protein levels were assessed in both HEK293 cells and the NF-κB/Luc 293 reporter clone.
Antibodies against total and phosphorylated forms of IκBα were used to determine the endogenous level of each protein and anti-Tubulin antibody was used to confirm equal loading of protein.

NCI-H292 = assay: Cell growth inhibition assay (resazurin, 48 h); assay type: cell-based, human; conditions: NCI-H292, 48 h
OVCAR-3 = assay: Cell growth inhibition assay (resazurin, 48 h); assay type: cell-based, human; conditions: OVCAR-3, 48 h
RPMI 8226 cells = assay: PARP and Pro-Caspase 3 cleavage in RPMI 8226 cells (western blot); assay type: cell-based, human; conditions: 100 nM; 0, 8 or 24 hours
Description: Total protein lysates were made and 20 μg of the lysates were then resolved under reducing/denaturing conditions and blotted onto nitrocellulose. The blots were then probed with anti-PARP or anti-caspase 3 antibodies followed by stripping and reprobing with an anti-actin antibody.
25 μg of the lysates were then resolved under reducing/denaturing conditions and blotted onto nitrocellulose. The blots were then probed with anti-PARP or anti-caspase 3 antibodies followed by stripping and reprobing with an anti-actin antibody.

[1] = tested on: 60 human tumor cell lines; assay: NCI screening panel of 60 human tumor cell lines (sulforhodamine B)
MES-SA/Dx5 = assay: Cell growth inhibition assay (resazurin, 48 h)
Description: Concentrations ranging from 6.32 μM to 2 nM were tested for II-2 and II-4.
The multidrug resistant MES-SA/Dx5 tumor cell line was derived from the human uterine sarcoma MES-SA tumor cell line and expresses elevated P-Glycoprotein (P-gp), an ATP dependent efflux pump.

[2] = molecular target: T1, 20S proteasome chymotrypsin-like activity in PC-3 cells (Homo sapiens, UniProt P28074); assay: Chymotrypsin-like activity of 20S proteasomes in treated PC-3 cells; assay type: cell-based; conditions: 5 nM, 1 hr
T1 construct: PC-3 (ATCC, CRL-1435), the human prostate cancer cell line; host or cells: PC-3
T1 sequence (P28074 60-263): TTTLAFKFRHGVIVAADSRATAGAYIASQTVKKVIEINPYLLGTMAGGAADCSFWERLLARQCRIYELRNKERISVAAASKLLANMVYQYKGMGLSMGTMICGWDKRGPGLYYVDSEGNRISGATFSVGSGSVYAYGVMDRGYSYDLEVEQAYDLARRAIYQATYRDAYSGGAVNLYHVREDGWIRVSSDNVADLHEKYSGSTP
Description: PC-3 (ATCC, CRL-1435), the human prostate cancer cell line, was cultured in F12K medium supplemented with 2 mM L-glutamine, 100 units/ml penicillin, 100 μg/ml streptomycin and 10% heat inactivated fetal bovine serum at 37° C., 5% CO2 and 95% humidified air. […] DMSO was used as the vehicle control at a final concentration of 0.1%. Following 1 hr incubation of PC-3 cells with the compounds, the cells were washed 3× with ice-cold 1× Dulbecco's Phosphate-Buffered Saline (DPBS, Mediatech, Herndon, Va.). […] Cell debris was pelleted by centrifugation at 14,000 rpm for 10 min, 4° C. and supernatants (=cell lysates) were transferred to a new tube. Protein concentration was determined by the BCA protein assay kit (Pierce Biotechnology, Rockford, Ill.). […] The released coumarin (AMC) was measured fluorometrically by using λex=390 nm and λem=460 nm. The assay was performed in a microtiter plate (Corning 3904) and followed kinetically with measurements every five minutes for 2 hr. The total amount of protein used for each assay was 20 μg. The final concentration of Suc-LLVY-AMC and DMSO was 20 μM and 0.2%, respectively. Results are presented as the percent inhibition of the 20S proteasome chymotrypsin-like activity relative to the DMSO control.

B16-F10 = assay: Cell growth inhibition assay (resazurin, 48 h); assay type: cell-based, mouse; conditions: B16-F10, 48 h
Description: as §1, §2

## C[C@@]12OC(=O)[C@]1([C@@H](O)[C@@H]1C=CCCC1)NC(=O)[C@@H]2CCCl [Formula II-16, Salinosporamide A]
Multiple myeloma cells
  VEGF-induced migration of multiple myeloma cells: blocked
DU 145; DU 145
  % cytotoxicity: 75 ± 4%
DU 145; Homo sapiens, DU 145, 48 h
  EC50: 37 ± 10 nM
PARP
  cleavage of PARP: cleavage of PARP within the Jurkat cells in a time-dependent fashion
PANC-1
  EC50: 60 nM
HL-60
  EC50: 27 nM
RPMI 8226; Homo sapiens, RPMI-8226, 48 h, RPMI 8226, 48 h
  EC50: 8.6 ± 1.9 nM
RPMI 8226; listed as II-16
  % cytotoxicity: 94 ± 0%
RPMI 8226; listed as Salinosporamide A
  % cytotoxicity: 94 ± 1%
MES-SA
  % cytotoxicity: 94 ± 1%
MES-SA; Homo sapiens, 48 h
  EC50: 20 ± 5 nM
CCD-27sk
  EC50: 196 nM
IκBα
  effect on total IκBα and phospho-IκBα upon TNF-α stimulation: reduced the degradation of total IκBα but also retained the phospho-IκBα level
NCI-H292; Homo sapiens
  EC50: 97 nM
NCI-H292
  EC50: 66 ± 29 nM
OVCAR-3; Homo sapiens
  EC50: 69 nM
OVCAR-3
  EC50: 49 ± 31 nM
RPMI 8226 cells
  cleavage of PARP and Pro-caspase 3: cleavage of PARP and Pro-caspase 3 in a time-dependent manner
[1]; 60 cell, 48 h, read-out: mean GI50
  GI50: < 10 nM
[1]; SK-MEL-28, read-out: LC50
  CC50: < 10 nM
[1]; read-out: LC50
  CC50: < 10 nM
MES-SA/Dx5; Homo sapiens, MES-SA/Dx5, 48 h
  EC50: 23 ± 1 nM
MES-SA/Dx5; MES-SA/Dx5
  % cytotoxicity: 92 ± 2%
[2]
  % inhibition of the chymotrypsin-like activity of 20S proteasomes in PC-3 cell lysates: 69%
B16-F10
  EC50: 47 ± 20 nM
B16-F10; Mus musculus
  EC50: 33 nM
